Experiments:
[1] = Detergency against keratotic plugs: penetration of the sample into the keratotic plugs; design: species or system human; details: keratotic plugs kept in contact with a sample for 1 minute; Table 1 samples
Method: (§1) 1. Evaluation of Detergency Against Keratotic Plugs During Cleansing
(§2) Keratotic plugs in the nasal region were removed with “Biore Nose Pack (manufactured by Kao Corporation)”, the resulting keratotic plugs on the pack were gently taken out with tweezers.
(§3) The resulting keratotic plugs were placed on a slide glass and were covered with a cover glass, and 0.05 mL of a sample was dropwise added to an edge of the cover glass. Consequently, the sample enters into the gap between the slide glass and the cover glass by capillary phenomenon and is brought into contact with the keratotic plugs. The contact of the keratotic plugs with the sample was recorded with a digital microscope (VHX-5000, manufactured by Keyence Corporation, magnification: x150), and the penetration of the sample into the keratotic plugs and the collapse state of the keratotic plugs were evaluated after one minute from the contact of the keratotic plugs with the sample. The results of each evaluation are shown in the columns “Detergency against keratotic plugs (penetration)” and “Detergency against keratotic plugs (during cleansing)” in Tables. The measurements were performed at 25° C.
(§4) The penetration was relatively evaluated by 11 criteria from the state 1 “the sample hardly penetrated into the keratotic plug” to the state 11 “the sample penetrated to the center of the keratotic plug”. The collapsibility by the detergency against keratotic plugs was relatively evaluated by 11 criteria from the state 1 “almost no change is observed in the external appearance of the keratotic plug” to the state 11 “peeling or separation is observed in the area from the surface layer to the central portion of the keratotic plug (the initial appearance of the keratotic plug is not retained)”.

[2] = Detergency against keratotic plugs after washing with water; design: species or system human; details: keratotic plugs kept in contact with water for 1 minute after the sample
Text: as §4
2. Evaluation of Detergency Against Keratotic Plugs after Washing with Water
After one minute from the contact of the keratotic plugs with the sample, KimWipes (registered trademark) was brought into contact with an edge of the cover glass to remove the sample under the cover glass. Subsequently, 0.05 mL of water was dropwise added to an edge of the cover glass. The sample dropwise added with water was recorded with the digital microscope, and the collapse state of the keratotic plugs was evaluated after one minute from the contact of the keratotic plugs with water according to the criteria for evaluating collapsibility of the keratotic plugs. The results of the evaluation are shown in the column “Detergency against keratotic plugs (after washing with water)” in Table. The measurements were performed at 25° C.

[3] = Detergency against keratotic plugs during cleansing: collapse state of the keratotic plugs; design: species or system human; details: keratotic plugs kept in contact with a sample for 1 minute; Table 1 samples
Method: as §1, §2, §3, §4

[4] = tested on: insoluble protein (zein protein); assay: Evaluation of effect of suppressing protein aggregation; details: Table 1 sample
Method: <<Evaluation of Effect of Suppressing Protein Aggregation>>
Thirty milliliters of a sample and 0.06 g of an insoluble protein (zein protein) were placed in a 35-mL standard glass bottle, and the concentration of the insoluble protein was adjusted to 0.2 mass % (test sample). Separately, a standard sample was prepared by using water instead of the sample and adjusting the concentration of the insoluble protein to 0.2 mass %. Subsequently, the standard glass bottles were sufficiently shaken and stirred up and down (shake width: 15 cm, 20 times at a rate of 5 times for 3 seconds) in a thermostatic chamber of 25° C. and were left to stand per 3 minutes. The precipitation state of the insoluble protein was then visually verified, and the ratio of the amount of the precipitated standard sample to the amount of the precipitated test sample (the height of the precipitate in each standard glass bottle was measured as the precipitation amount), (precipitation amount of standard sample)/(precipitation amount of test sample), was calculated. A higher ratio indicates a higher effect of suppressing protein aggregation.

Compound	penetration into keratotic plugs (in words) [1]	collapse of the keratotic plugs on contact with water (in words) [2]	collapse of the keratotic plugs in contact with the sample (in words) [3]	action on proteins (in words) [4]
N=C(N)NCCC[C@H](N)C(=O)O [Arginine]	penetrated into keratotic plugs	further swelled to cause a phenomenon of accelerating the collapse of the keratotic plugs		
O=P([O-])([O-])O.[Na+].[Na+] [disodium hydrogen phosphate]	hardly penetrated into keratotic plugs	the collapse of the keratotic plugs did not progress	the collapse of the keratotic plugs did not progress	
O=C([O-])O.[Na+] [sodium hydrogen carbonate]	hardly penetrated into keratotic plugs	the collapse of the keratotic plugs did not progress	the collapse of the keratotic plugs did not progress	
O=P([O-])([O-])[O-].[Na+].[Na+].[Na+] [trisodium phosphate]	hardly penetrated into keratotic plugs	the collapse of the keratotic plugs did not progress	the collapse of the keratotic plugs did not progress	
sodium polyoxyethylene (2) lauryl ether sulfate [POE (2) sodium lauryl sulfate]	hardly penetrated into the keratotic plugs		the collapse of the keratotic plugs did not progress	the action on proteins was strong to dissolve the proteins

Source: patent US20200054539A1, “METHOD FOR REMOVING KERATOTIC PLUGS” (KAO CORPORATION, priority 2017, published 2020)
